Source: patent publication US10131652B2, “Pyrimidinyloxy benzene derivatives as herbicides” (E. I. DU PONT DE NEMOURS AND COMPANY, priority 2014, dated 2018)
Read-outs that look alike come from different tables or passages of the source.

Key:
Assay in all cases: Test D pre-/postemergence plant response
Format in all cases: in vivo
[1] = system: waterhemp (common waterhemp, Amaranthus rudis); conditions: Amaranthus tuberculatus; for pest or weed control at 31 g/ha: 31 g ai/ha; for pest or weed control at 62 g/ha: 62 g ai/ha; for pest or weed control at 125 g/ha: 125 g ai/ha
Summary of the method: (§1)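 Preemergence: seeds in loam/sand blend treated with test chemicals in non-phytotoxic solvent with surfactant; postemergence: plants at 2–18 cm (1- to 4-leaf stage) in peat-based medium sprayed likewise. Greenhouse 13 to 15 days, then visual rating vs controls, 0 (no effect) to 100 (complete control).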

[2] = system: johnsongrass (Sorghum halepense); conditions: Sorghum halepense; for pest or weed control at 31 g/ha: 31 g ai/ha; for pest or weed control at 62 g/ha: 62 g ai/ha; for pest or weed control at 125 g/ha: 125 g ai/ha
Summary of the method: as §1

[3] = system: oilseed rape (Brassica napus); conditions: Brassica napus; for plant injury at 31 g/ha: 31 g ai/ha; for plant injury at 62 g/ha: 62 g ai/ha
Summary of the method: as §1

[4] = system: ragweed (common ragweed, Ambrosia elatior); conditions: Ambrosia artemisiifolia; for pest or weed control at 31 g/ha: 31 g ai/ha; for pest or weed control at 62 g/ha: 62 g ai/ha; for pest or weed control at 125 g/ha: 125 g ai/ha
Summary of the method: as §1

[5] = system: winter wheat (Triticum aestivum); conditions: Triticum aestivum; for plant injury at 31 g/ha: 31 g ai/ha; for plant injury at 62 g/ha: 62 g ai/ha; for plant injury at 125 g/ha: 125 g ai/ha
Summary of the method: as §1

soybean (Glycine max) = conditions: Glycine max; for plant injury at 31 g/ha: 31 g ai/ha; for plant injury at 62 g/ha: 62 g ai/ha
Summary of the method: as §1

[6] = system: giant foxtail (Setaria faberii); conditions: Setaria faberi; for pest or weed control at 16 g/ha: 16 g ai/ha; for pest or weed control at 31 g/ha: 31 g ai/ha; for pest or weed control at 62 g/ha: 62 g ai/ha; for pest or weed control at 125 g/ha: 125 g ai/ha
Summary of the method: as §1

[7] = system: blackgrass (Alopecurus myosuroides); conditions: Alopecurus myosuroides; for pest or weed control at 16 g/ha: 16 g ai/ha; for pest or weed control at 31 g/ha: 31 g ai/ha; for pest or weed control at 62 g/ha: 62 g ai/ha; for pest or weed control at 125 g/ha: 125 g ai/ha
Summary of the method: as §1

[8] = system: large (Lg) crabgrass (Digitaria sanguinalis); conditions: Digitaria sanguinalis; for pest or weed control at 16 g/ha: 16 g ai/ha; for pest or weed control at 31 g/ha: 31 g ai/ha; for pest or weed control at 62 g/ha: 62 g ai/ha; for pest or weed control at 125 g/ha: 125 g ai/ha
Summary of the method: as §1

[9] = post-emergence, Postemergence, scale 0 to 100, 0 no effect, 100 complete control, read-out: Plant response rating, Waterhemp
[10] = pre-emergence, Preemergence, scale 0 to 100 (0 no effect, 100 complete control), read-out: Plant response rating, Waterhemp
[11] = post-emergence, Postemergence, scale 0 to 100, 0 no effect, 100 complete control, read-out: Plant response rating, Johnsongrass
[12] = pre-emergence, Preemergence, scale 0 to 100 (0 no effect, 100 complete control), read-out: Plant response rating, Johnsongrass
[13] = pre-emergence, Preemergence, scale 0 to 100 (0 no effect, 100 complete control), read-out: Plant response rating, Oilseed Rape
[14] = post-emergence, Postemergence, scale 0 to 100, 0 no effect, 100 complete control, read-out: Plant response rating, Ragweed
[15] = pre-emergence, Preemergence, scale 0 to 100 (0 no effect, 100 complete control), read-out: Plant response rating, Ragweed
[16] = post-emergence, Postemergence, scale 0 to 100, 0 no effect, 100 complete control, read-out: Plant response rating, Wheat
[17] = pre-emergence, Preemergence, scale 0 to 100 (0 no effect, 100 complete control), read-out: Plant response rating, Wheat
[18] = pre-emergence, Preemergence, scale 0 to 100 (0 no effect, 100 complete control), read-out: Plant response rating, Soybean
[19] = post-emergence, Postemergence, scale 0 to 100 (0 no effect, 100 complete control), read-out: Foxtail, Giant plant response rating
[20] = post-emergence, Postemergence, scale 0 to 100, 0 no effect, 100 complete control, read-out: Plant response rating, Foxtail, Giant
[21] = pre-emergence, Preemergence, scale 0 to 100 (0 no effect, 100 complete control), read-out: Plant response rating, Foxtail, Giant
[22] = post-emergence, Postemergence, scale 0 to 100 (0 no effect, 100 complete control), read-out: Blackgrass plant response rating
[23] = post-emergence, Postemergence, scale 0 to 100, 0 no effect, 100 complete control, read-out: Plant response rating, Blackgrass
[24] = pre-emergence, Preemergence, scale 0 to 100 (0 no effect, 100 complete control), read-out: Plant response rating, Blackgrass
[25] = post-emergence, Postemergence, scale 0 to 100 (0 no effect, 100 complete control), read-out: Crabgrass, Large plant response rating
[26] = post-emergence, Postemergence, scale 0 to 100, 0 no effect, 100 complete control, read-out: Plant response rating, Crabgrass, Large
[27] = pre-emergence, Preemergence, scale 0 to 100 (0 no effect, 100 complete control), read-out: Plant response rating, Crabgrass, Large

With `Fc1cccc(Oc2ncc(Cl)cn2)c1-c1cc(C(F)F)no1` [Compound 144, 5-chloro-2-[2-[3-(difluoromethyl)-5-isoxazolyl]-3-fluorophenoxy]pyrimidine] the pest or weed control at 31 g/ha ([1]; post-emergence, Postemergence, scale 0 to 100 (0 no effect, 100 complete control), read-out: Waterhemp plant response rating) was 85%, the pest or weed control at 62 g/ha [1, 9] was 100% and the pest or weed control at 125 g/ha [1, 9] was 100%. It also gave a pest or weed control at 125 g/ha ([1]; pre-emergence, Preemergence, read-out: Plant response rating (scale 0 to 100), Waterhemp) of 100%, a pest or weed control at 16 g/ha ([1]; pre-emergence, Preemergence, 16 g ai/ha, scale 0 to 100 (0 no effect, 100 complete control), read-out: Plant response rating, Waterhemp) of 100% and a pest or weed control at 31 g/ha [1, 10] of 100%. The pest or weed control at 62 g/ha [1, 10] was 100%, the pest or weed control at 31 g/ha ([2]; post-emergence, Postemergence, scale 0 to 100 (0 no effect, 100 complete control), read-out: Johnsongrass plant response rating) was 10% and the pest or weed control at 62 g/ha [2, 11] was 10%. For the same molecule, the pest or weed control at 125 g/ha [2, 11] was 50%, the pest or weed control at 125 g/ha ([2]; pre-emergence, Preemergence, read-out: Plant response rating (scale 0 to 100), Johnsongrass) was 100% and the pest or weed control at 16 g/ha ([2]; pre-emergence, Preemergence, 16 g ai/ha, scale 0 to 100 (0 no effect, 100 complete control), read-out: Plant response rating, Johnsongrass) was 20%. For the same molecule, the pest or weed control at 31 g/ha [2, 12] was 75%, the pest or weed control at 62 g/ha [2, 12] was 100% and the plant injury at 31 g/ha ([3]; post-emergence, Postemergence, scale 0 to 100 (0 no effect, 100 complete control), read-out: Oilseed Rape plant response rating) was 80%. The plant injury at 62 g/ha ([3]; post-emergence, Postemergence, scale 0 to 100, 0 no effect, 100 complete control, read-out: Plant response rating, Oilseed Rape) was 95%, the plant injury at 125 g/ha ([3]; pre-emergence, Preemergence, 125 g ai/ha, read-out: Plant response rating (scale 0 to 100), Oilseed Rape) was 100% and the plant injury at 16 g/ha ([3]; pre-emergence, Preemergence, 16 g ai/ha, scale 0 to 100 (0 no effect, 100 complete control), read-out: Plant response rating, Oilseed Rape) was 98%. The plant injury at 31 g/ha [3, 13] was 100%, the plant injury at 62 g/ha [3, 13] was 100% and the pest or weed control at 31 g/ha ([4]; post-emergence, Postemergence, scale 0 to 100 (0 no effect, 100 complete control), read-out: Ragweed plant response rating) was 60%. For the same molecule, the pest or weed control at 62 g/ha [4, 14] was 70%, the pest or weed control at 125 g/ha [4, 14] was 75% and the pest or weed control at 125 g/ha ([4]; pre-emergence, Preemergence, read-out: Plant response rating (scale 0 to 100), Ragweed) was 100%. The pest or weed control at 16 g/ha ([4]; pre-emergence, Preemergence, 16 g ai/ha, scale 0 to 100 (0 no effect, 100 complete control), read-out: Plant response rating, Ragweed) was 75%, the pest or weed control at 31 g/ha [4, 15] was 85% and the pest or weed control at 62 g/ha [4, 15] was 100%. It also gave a plant injury at 31 g/ha ([5]; post-emergence, Postemergence, scale 0 to 100 (0 no effect, 100 complete control), read-out: Wheat plant response rating) of 10%, a plant injury at 62 g/ha [5, 16] of 10% and a plant injury at 125 g/ha [5, 16] of 10%. It also gave a plant injury at 125 g/ha ([5]; pre-emergence, Preemergence, read-out: Plant response rating (scale 0 to 100), Wheat) of 25%, a plant injury at 16 g/ha ([5]; pre-emergence, Preemergence, 16 g ai/ha, scale 0 to 100 (0 no effect, 100 complete control), read-out: Plant response rating, Wheat) of 0% and a plant injury at 31 g/ha [5, 17] of 5%. For the same molecule, the plant injury at 62 g/ha [5, 17] was 25%, the plant injury at 31 g/ha (soybean (Glycine max); post-emergence, Postemergence, scale 0 to 100 (0 no effect, 100 complete control), read-out: Soybean plant response rating) was 80% and the plant injury at 62 g/ha (soybean (Glycine max); post-emergence, Postemergence, scale 0 to 100, 0 no effect, 100 complete control, read-out: Plant response rating, Soybean) was 95%. For the same molecule, the plant injury at 125 g/ha (soybean (Glycine max); pre-emergence, Preemergence, 125 g ai/ha, read-out: Plant response rating (scale 0 to 100), Soybean) was 95%, the plant injury at 16 g/ha (soybean (Glycine max); pre-emergence, Preemergence, 16 g ai/ha, scale 0 to 100 (0 no effect, 100 complete control), read-out: Plant response rating, Soybean) was 35% and the plant injury at 31 g/ha (soybean (Glycine max); [18]) was 75%. It also gave a plant injury at 62 g/ha (soybean (Glycine max); [18]) of 90%, a pest or weed control at 16 g/ha [6, 19] of 5% and a pest or weed control at 31 g/ha [6, 19] of 10%. For the same molecule, the pest or weed control at 62 g/ha [6, 20] was 25%, the pest or weed control at 125 g/ha [6, 20] was 25% and the pest or weed control at 125 g/ha ([6]; pre-emergence, Preemergence, read-out: Plant response rating (scale 0 to 100), Foxtail, Giant) was 100%. For the same molecule, the pest or weed control at 16 g/ha [6, 21] was 100%, the pest or weed control at 31 g/ha [6, 21] was 100% and the pest or weed control at 62 g/ha [6, 21] was 100%. It also gave a pest or weed control at 16 g/ha [7, 22] of 5%, a pest or weed control at 31 g/ha [7, 22] of 15% and a pest or weed control at 62 g/ha [7, 23] of 15%. For the same molecule, the pest or weed control at 125 g/ha [7, 23] was 75%, the pest or weed control at 125 g/ha ([7]; pre-emergence, Preemergence, read-out: Plant response rating (scale 0 to 100), Blackgrass) was 95% and the pest or weed control at 16 g/ha [7, 24] was 55%. For the same molecule, the pest or weed control at 31 g/ha [7, 24] was 95%, the pest or weed control at 62 g/ha [7, 24] was 95% and the pest or weed control at 16 g/ha [8, 25] was 5%. For the same molecule, the pest or weed control at 31 g/ha [8, 25] was 10%, the pest or weed control at 62 g/ha [8, 26] was 15% and the pest or weed control at 125 g/ha [8, 26] was 20%. It also gave a pest or weed control at 125 g/ha ([8]; pre-emergence, Preemergence, read-out: Plant response rating (scale 0 to 100), Crabgrass, Large) of 100%, a pest or weed control at 16 g/ha [8, 27] of 90% and a pest or weed control at 31 g/ha [8, 27] of 98%. For the same molecule, the pest or weed control at 62 g/ha [8, 27] was 100%.
